From patent US5312900A, “23K protein with binding specificity for queuine” (La Jolla Cancer Research Foundation, priority 1991, dated 1994)
pIC50: −log10 of the molar value. “Also recorded” adds a separate entry of the source.

Experiments:
^125 I-Queb = assay: Effect of TPA on ^125 I-Queb binding to Queuine-sepharose; set-up: species or system bovine; conditions: TPA at 50% of the concentration of Queuine bound to sepharose
Procedure: TPA, at 50% of the concentration of the Queuine bound to sepharose, was evaluated for its ability to antagonize ^125 I-Queb binding to Queuine-sepharose. FIG. 3A illustrates the ^125 I-Queb binding without TPA and FIG. 3B illustrates the results with TPA. […] However, the elution patterns of ^125 I-Queb from the Queuine-sepharose was altered in the TPA samples.

[1] = system: ^125 I-Queb (23K protein); assay: Binding of ^125 I-Queb to ligand-sepharose; set-up: species or system bovine; conditions: for Unbound CPM: 1×10^6 cpm ^125 I-Queb incubated 2 hours with ligand-sepharose, CPM in supernatant and three PBS/Ca++; for Unbound CPM / Bound CPM: Mg++ washes, n = 3; for Bound CPM: CPM associated with sepharose after removal of supernatant and three PBS/Ca++, ± S.D.; for % Bound: share of available ^125 I-Queb bound to ligand-sepharose; for Binding of ^125 I-Queb to ligand-sepharose and its elution (in words): successive elution with 20mM EDTA, 1M NaCl, 1M urea, 8M urea
Procedure: Queb was isolated from the 15% SDS-PA gels by electroelution, and labelled with ^125 I according to Example IV. […] Equal quantities (1×10^6 cpm, 50 μl ) of ^125 I-Queb were incubated for 2 hours with equal aliquots (50 μl ) of ligand-sepharose. The buffer was then isolated and the sepharose was washed with PBS until less than 1×10^4 cpm were measured in the eluent.

Queb = assay: Affinity chromatography of BAF proteins on ligand-sepharose with stepwise elution; assay type: binding, bovine; conditions: third trimester BAF; elution with 20 mM EDTA, 1M NaCl, 1M urea, 8M urea
Excerpt: The isolation of Queuine binding factors was completed using affinity chromatography. CNBr-activated sepharose 4B (Pharmacia) was coupled with Queuine, guanosine or glycine using the manufacturers described procedure. The coupling ratio of Queuine to the amount of dry sepharose was 2.7 μmole to 0.1 g and the ratio of guanosine to sepharose was 1.3 μmole to 0.1 g. The procedure used targeted coupling of Queuine and guanosine at the 2-amino group of the purine ring.
The affinity-sepharose was equilibrated with phosphate buffered saline (PBS) containing 2 mM CaCl2, and MgCl2 contained in a glass pipette. The sample was allowed to flow through the column containing the affinity-sepharose, and the bound material was eluted with a successive series of PBS buffers (pH 7.5) containing: 20 mM EDTA, 1M NaCl, 1M urea, 8M urea. Once eluted, the protein was precipitated with 95% ethanol containing 0.5M potassium acetate, washed twice in 95% ethanol, and then solubilized in SDS-PAGE sample buffer, 0.25M tris-HCl, pH 6.8; 10% glycerol; 2% SDS; 0.0025% bromophenol blue.
Third trimester BAF (50 ml) was passed over a 0.4 ml Queuine-sepharose column. The column was then washed with PBS containing 2mM of CaCl2 and MgCl2 until the eluent contained<0.01 OD (280 nm). […] Eluent fractions (200 μl ) were collected and spectrophotometrically monitored (280 nm). […]

HL-60 cells = assay: Differentiation response of HL-60 cells; assay type: cell-based; conditions: TPA-induced differentiation where stated
[2] = system: HL 60 cells (ATCC No. CCL 240); assay: Cell growth of HL 60 cells; assay type: cell-based

| Unbound CPM [1] | Bound CPM [1] | Binding of ^125 I-Queb to ligand-sepharose and its elution (in words) [1] | Binding of ^125 I-Queb to ligand-sepharose and its elution (in words) ([1]; listed as guanine) | SMILES | Effect on amount of ^125 I-Queb bound to Queuine-sepharose (in words) (^125 I-Queb) | Effect on elution of ^125 I-Queb from Queuine-sepharose (in words) (^125 I-Queb; without TPA 8 M urea needed) | % Bound [1] [%] | Binding of Queb from BAF to ligand-sepharose column (Queb) | Effect on differentiation response (in words) (HL-60 cells) | Effect on cell growth (in words) [2] | pIC50 ([2]; Homo sapiens, read-out: ID50, inhibition of cell growth) |
| --- | --- | --- | --- | --- | --- | --- | --- | --- | --- | --- | --- |
| – | – | – | – | CCCCCCCCCCCCCC(=O)O[C@@H]1[C@@H](C)[C@@]2(O)[C@@H](C=C(CO)C[C@]3(O)C(=O)C(C)=C[C@@H]23)[C@@H]2C(C)(C)[C@]12OC(C)=O [TPA, 12-O-tetradecanoyl-phorbol-13-acetate] | did not quantitatively alter | 20 mM EDTA was able to elute and eluted under milder conditions of 20 mM EDTA | – | – | – | – | – |
| 404,060 CPM | 851,350 ± 91,830 CPM | only eluted by 8M urea | – | Nc1nc2[nH]cc(CN[C@H]3C=C[C@H](O)[C@@H]3O)c2c(=O)[nH]1 [Queuine] | – | – | – | eluted only under stringent elution conditions of 8 M urea; also recorded: high binding affinity | modulate the ability of cells to respond to differentiation signals; also recorded: markedly sensitized HL-60 cells to a TPA-induced differentiation response; also recorded: inhibit TPA when used concurrently | both stimulate and inhibit | 5.11 |
| 843,385 CPM | 104,740 ± 12,885 CPM | No ^125 I-Queb was found eluted | minimal amount | Nc1nc2c(ncn2[C@@H]2O[C@H](CO)[C@@H](O)[C@H]2O)c(=O)[nH]1 [Guanosine] | – | – | 11.05 | no presence of Queb that bound with high affinity; also recorded: did not bind | – | – | – |

| SMILES | Unbound CPM [1] | Bound CPM [1] | Binding of ^125 I-Queb to ligand-sepharose and its elution (in words) [1] | Binding of ^125 I-Queb to ligand-sepharose and its elution (in words) ([1]; listed as guanine) | Effect on amount of ^125 I-Queb bound to Queuine-sepharose (in words) (^125 I-Queb) | Effect on elution of ^125 I-Queb from Queuine-sepharose (in words) (^125 I-Queb; without TPA 8 M urea needed) | % Bound [1] [%] | Binding of Queb from BAF to ligand-sepharose column (Queb) | Effect on differentiation response (in words) (HL-60 cells) | Effect on cell growth (in words) [2] | pIC50 ([2]; Homo sapiens, read-out: ID50, inhibition of cell growth) |
| --- | --- | --- | --- | --- | --- | --- | --- | --- | --- | --- | --- |
| NCC(=O)O [Glycine] | 802,682 CPM | 70,500 ± 8,800 CPM | minimal amount | – | – | – | 8.08 | – | – | – | – |
